Experimental data as given in ChEMBL document CHEMBL4190325, “[…] Extracts as Tools to Balance Estrogenic and Chemopreventive Activities of Botanicals for Women's Health” (J Nat Prod, 2017).

Key:
cells = details: Mus musculus, Hepa-1c1c7, 48 h
Description: Cytotoxicity against mouse Hepa1c1c7 cells after 48 hrs by crystal violet staining based assay

Ishikawa = experiment: cells; details: Homo sapiens, 96 h
Description: Cytotoxicity against human Ishikawa cells after 96 hrs by SRB assay

Estrogen receptor = target: T1, Estrogen receptor (Homo sapiens, UniProt P03372); experiment: Estrogenic activity at estrogen receptor alpha in human Ishikawa cells assessed as induction of alkaline phosphatase activity using p-Nitrophenol phosphate as substrate pretreated for 96 hrs followed by substrate addition measured every 15 secs by scanning spectrophotometric analysis; type: cell-based
T1 sequence (P03372 whole entry): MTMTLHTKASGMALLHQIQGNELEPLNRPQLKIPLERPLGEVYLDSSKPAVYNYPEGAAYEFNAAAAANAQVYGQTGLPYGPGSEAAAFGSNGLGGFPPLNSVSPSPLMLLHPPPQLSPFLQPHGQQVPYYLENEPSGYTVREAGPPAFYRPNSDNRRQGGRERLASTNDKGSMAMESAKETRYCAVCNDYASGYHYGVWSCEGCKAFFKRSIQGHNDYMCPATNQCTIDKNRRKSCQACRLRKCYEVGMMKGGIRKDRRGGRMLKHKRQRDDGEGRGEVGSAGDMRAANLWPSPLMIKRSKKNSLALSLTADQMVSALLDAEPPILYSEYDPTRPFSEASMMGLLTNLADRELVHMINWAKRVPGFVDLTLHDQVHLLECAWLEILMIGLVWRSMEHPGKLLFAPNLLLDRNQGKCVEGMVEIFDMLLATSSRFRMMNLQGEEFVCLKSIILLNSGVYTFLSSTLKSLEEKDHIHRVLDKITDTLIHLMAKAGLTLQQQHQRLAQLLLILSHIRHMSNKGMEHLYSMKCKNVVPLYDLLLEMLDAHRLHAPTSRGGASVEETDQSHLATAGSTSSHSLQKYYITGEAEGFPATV

[1] = target: NAD(P)H dehydrogenase [quinone] 1 (Mus musculus) (UniProt Q64669)
Sequence of NAD(P)H dehydrogenase [quinone] 1 (Mus musculus) (Q64669 whole entry): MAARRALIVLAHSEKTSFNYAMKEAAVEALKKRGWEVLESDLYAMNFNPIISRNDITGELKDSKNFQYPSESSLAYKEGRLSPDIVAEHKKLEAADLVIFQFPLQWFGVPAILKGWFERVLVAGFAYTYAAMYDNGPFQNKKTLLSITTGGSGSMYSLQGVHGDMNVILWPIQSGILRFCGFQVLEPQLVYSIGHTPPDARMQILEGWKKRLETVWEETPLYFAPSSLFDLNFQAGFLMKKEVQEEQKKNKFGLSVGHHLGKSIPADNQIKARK
Description: Induction of NQO1 activity in mouse Hepa1c1c7 cells after 48 hrs by MTT reduction assay

CC(C)=CCc1c(O)cc2c(c1O)C(=O)CC(c1ccc(O)cc1)O2 (stereo unspecified)
IC50 (cells): > 20 µM
IC50 (Ishikawa): > 5 µM
EC50 (Estrogen receptor; read-out: EC50): 0.4 µM
CD [1]: > 30 µM

O=c1cc(-c2ccc(Br)cc2)oc2ccccc12
IC50 (cells): 0.7 to 166 µM

CC(C)=CCc1c(O)cc(O)c2c1O[C@H](c1ccc(O)cc1)CC2=O
IC50 (cells): > 20 µM
IC50 (Ishikawa): 19.1 µM
CD [1]: > 30 µM

COc1cc(O)c(CC=C(C)C)c2c1C(=O)CC(c1ccc(O)cc1)O2 (stereo unspecified) [ISOXANTHOHUMOL]
IC50 (cells): 30.7 µM
IC50 (Ishikawa): 24.9 µM
EC50 (Estrogen receptor; read-out: EC50): 1.4 µM
CD [1]: > 50 µM

COc1cc(O)c(CC=C(C)C)c(O)c1C(=O)/C=C/c1ccc(O)cc1 [XANTHOHUMOL]
IC50 (cells): 17.5 µM
IC50 (Ishikawa): 4.2 µM
EC50 (Estrogen receptor; ishikawa): Not Active
CD [1]: 1.3 µM
